biological target: C5aR (Homo sapiens (Human), UniProt P21730); assay: Chemotaxis assay using U937 cells (C5aR mediated migration); type: cell-based; settings: read-out: Mig IC50
How it was run: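 U937 monocytic cells, pretreated overnight with 0.5 mM cyclic AMP, placed at 100,000 cells in the upper well above 5 μm polycarbonate filters. Lower well held 0.03 nM C5a plus compound in HBSS/1% FBS; after 1.5 h at 37° C migrated cells counted directly or by CyQuant, giving IC50.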

Sequence of C5aR (P21730 whole entry): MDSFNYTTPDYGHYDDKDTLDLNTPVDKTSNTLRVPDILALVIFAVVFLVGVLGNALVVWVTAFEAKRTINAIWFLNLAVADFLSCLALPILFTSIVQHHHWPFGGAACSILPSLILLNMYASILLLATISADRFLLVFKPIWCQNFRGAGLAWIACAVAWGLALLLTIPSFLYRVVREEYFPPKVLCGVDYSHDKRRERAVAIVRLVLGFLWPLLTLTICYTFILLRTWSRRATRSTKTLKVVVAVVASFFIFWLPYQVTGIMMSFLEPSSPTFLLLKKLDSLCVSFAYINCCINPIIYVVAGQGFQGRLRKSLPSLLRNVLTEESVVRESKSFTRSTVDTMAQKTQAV

SMILES | IC50
Cc1cnc(N2CCc3nn(-c4c(C)cccc4OCC(C)C)c(-c4ccc(NC(N)=O)c(F)c4)c3C2)c(C(F)(F)F)c1 [Example 1.240] | ≤ 5 nM
Cc1cccc(OCC(C)C)c1-n1nc2c(c1-c1cc(F)c(NC(N)=O)cc1F)CN(c1ncc(C(F)(F)F)cc1F)CC2 [Example 1.242] | ≤ 5 nM
CCc1cccc(CC)c1-n1nc2c(c1-c1ccc(NC(N)=O)c(F)c1)CN(CC1CCCC1)CC2 [Example 1.243] | ≤ 5 nM
CCc1cccc(CC)c1-n1nc2c(c1-c1ccc(NC(N)=O)c(F)c1)CN(Cc1ccccc1C(F)(F)F)CC2 [Example 1.244] | ≤ 5 nM
Cc1cccc(OCC(C)C)c1-n1nc2c(c1-c1ccc(NC(N)=O)c(F)c1)CN(c1ncc(F)cc1F)CC2 [Example 1.249] | ≤ 5 nM
Cc1cccc(OCC(C)C)c1-n1nc2c(c1-c1ccc(NC(N)=O)c(F)c1)CN(c1cc(F)cnc1F)CC2 [Example 1.251] | 5 to 50 nM
CCc1cccc(CC)c1-n1nc2c(c1-c1ccc(NC(N)=O)c(F)c1)CN(CC(C)(C)C)CC2 [Example 1.253] | ≤ 5 nM
Cc1cccc(OCC(C)C)c1-n1nc2c(c1-c1ccc(NC(N)=O)c(F)c1)CN(C(C)C1CCCC1)CC2 (stereo not drawn) [Example 1.254] | ≤ 5 nM
Cc1cccc(OCC(C)C)c1-n1nc2c(c1-c1ccc(NC(N)=O)c(F)c1)CN(CC1CCCCC1)CC2 [Example 1.256] | ≤ 5 nM
Cc1cccc(OCC(C)C)c1-n1nc2c(c1-c1cc(F)c(NC(N)=O)c(F)c1)CN(c1ncc(C(F)(F)F)cc1F)CC2 [Example 1.263] | 50 to 500 nM
Cc1cc(-c2c3c(nn2-c2c(C)cccc2OCC(C)C)CCN(c2ncc(C(F)(F)F)cc2F)C3)cc(C)c1NC(N)=O [Example 1.266] | > 500 nM

Continued, values first:

IC50 | SMILES
≤ 5 nM | Cc1cccc(OCC(C)C)c1-n1nc2c(c1-c1ccc(NC(N)=O)c(F)c1)CN(C(C)CC(C)C)CC2 (stereo not drawn) [Example 1.239]
≤ 5 nM | Cc1cccc(OCC(C)C)c1-n1nc2c(c1-c1ccc(NC(N)=O)c(F)c1)CN(c1ccc(C(F)(F)F)cc1Cl)CC2 [Example 1.241]
5 to 50 nM | Cc1cccc(OCC(C)C)c1-n1nc2c(c1-c1ccc(NC(N)=O)c(F)c1)CN(c1nccn3ccnc13)CC2 [Example 1.245]
5 to 50 nM | Cc1cccc(OCC(C)C)c1-n1nc2c(c1-c1ccc(NC(N)=O)c(F)c1)CN(c1nc(Cl)ns1)CC2 [Example 1.246]
≤ 5 nM | CCCC(C)N1CCc2nn(-c3c(C)cccc3OCC(C)C)c(-c3ccc(NC(N)=O)c(F)c3)c2C1 (stereo not drawn) [Example 1.247]
50 to 500 nM | Cc1cccc(OCC(C)C)c1-n1nc2c(c1-c1ccc(NC(N)=O)c(F)c1)CN(CC1CCOC1)CC2 (stereo not drawn) [Example 1.248]
≤ 5 nM | Cc1cccc(OCC(C)C)c1-n1nc2c(c1-c1ccc(NC(N)=O)c(F)c1)CN(c1ncc(Cl)cc1Cl)CC2 [Example 1.252]
≤ 5 nM | CCC(CC)N1CCc2nn(-c3c(C)cccc3OCC(C)C)c(-c3ccc(NC(N)=O)c(F)c3)c2C1 [Example 1.255]
≤ 5 nM | Cc1cccc(OCC(C)C)c1-n1nc2c(c1-c1ccc(NC(N)=O)c(F)c1)CN([C@@H](C)C(C)C)CC2 [Example 1.257]
5 to 50 nM | Cc1cccc(OCC(C)C)c1-n1nc2c(c1-c1ccc(NC(N)=O)cc1)CN(c1ncc(Cl)cc1Cl)CC2 [Example 1.258]
5 to 50 nM | CCC(C)N1CCc2nn(-c3c(C)cccc3OCC(C)C)c(-c3ccc(NC(N)=O)c(F)c3)c2C1 (stereo not drawn) [Example 1.259]
> 500 nM | Cc1cccc(OCC(C)C)c1-n1nc2c(c1-c1ccc(NC(N)=O)cc1)CN(CC(C)(C)C)CC2(C)C [Example 1.260]
> 500 nM | Cc1cccc(OCC(C)C)c1-n1nc2c(c1-c1ccc(NC(N)=O)cc1)CN(Cc1cc(Cl)ccc1Cl)CC2(C)C [Example 1.261]
≤ 5 nM | Cc1cccc(OCC(C)C)c1-n1nc2c(c1-c1ccc(NC(N)=O)c(F)c1)CN(CC(C)C(F)(F)F)CC2 (stereo not drawn) [Example 1.262]
50 to 500 nM | Cc1cccc(OCC(C)C)c1-n1nc2c(c1-c1ccc(NC(N)=O)c(F)c1)CN(C(C)C)CC2 [Example 1.264]
50 to 500 nM | CCN1CCc2nn(-c3c(C)cccc3OCC(C)C)c(-c3ccc(NC(N)=O)c(F)c3)c2C1 [Example 1.265]

Source: patent US11478460B2, “Diaryl substituted 6,5-fused ring compounds as C5aR inhibitors” (CHEMOCENTRYX, INC., priority 2017, dated 2022)
